“And” between values parts separate entries of the source, which are not always exact repeats. Equal entries are not always repeated.
Experiment: Adverse events (TEAEs, SAEs, AESI; Safety Analysis Set)
[1] = Table 43, Part 1, 100 mg QD (N = 31)

Source text: In analyses performed on the Safety Analysis Set, subjects will be analyzed according to their actual treatment received.

## CC(=O)N[C@H]1CC[C@H](NC(=O)CN2CCN(c3nncc(-c4ccc(C)cc4)n3)CC2)CC1 [Compound A HBr]
Part 1, Active (N = 133)
  TEAE leading to permanent discontinuation from study drug, Vascular disorders, %: (2.3) %
Part 1, active drug, listed as lorundrostat
  Subjects with TEAEs considered at least possibly related to study drug: 27 (20.3%) subjects (%)
Part 1 All active, N 159
  AE requiring dose titration: Hyperkalemia: 6 (3.8%)
  AE requiring dose titration: Hyponatremia: 0
  AE requiring dose titration: Other possibly related: 0
  AE requiring dose titration: Other unrelated: 1 (0.6%)
  AE requiring study drug discontinuation: Hyperkalemia: 6 (3.8%)
  AE requiring study drug discontinuation: Hyponatremia: 0
  AE requiring study drug discontinuation: Hypotension: 2 (1.2%)
  AE requiring study drug discontinuation: Other possibly related: 1 (0.6%)
  AE requiring study drug discontinuation: Other unrelated: 11 (6.9%)
Part 1 or Part 2
  Deaths: No deaths
Part 2
  Subjects with TEAE resulting in dose modification: 7 subjects
Part 2 100 mg QD cohort
  Muscle spasms: 3 (9.7%) subjects (%)
  Subjects with ≥1 moderate on-treatment TEAE: 12 (38.7%) subjects (%)
Part 2 100 mg QD, N 31
  AE requiring dose titration: Hyperkalemia: 1 (3.2%)
  AE requiring dose titration: Hyponatremia: 1 (3.2%)
  AE requiring dose titration: Other possibly related: 0
  AE requiring dose titration: Other unrelated: 0
  AE requiring study drug discontinuation: Hyperkalemia: 0
  AE requiring study drug discontinuation: Hyponatremia: 1 (3.4%)
  AE requiring study drug discontinuation: Hypotension: 1 (2.8%)
  AE requiring study drug discontinuation: Other possibly related: 0
  AE requiring study drug discontinuation: Other unrelated: 1 (2.8%)
Part 2, 100 mg QD (N = 31)
  Subjects with any On-treatment TEAEs leading to withdrawal from study drug, %: 6.5%
  TEAE leading to permanent withdrawal from study drug, Glomerular filtration rate decreased, %: 3.2%
  TEAE leading to permanent withdrawal from study drug, Hyponatraemia, %: 3.2%
  TEAE leading to permanent withdrawal from study drug, Investigations, %: 3.2%
  TEAE leading to permanent withdrawal from study drug, Metabolism and nutrition disorders, %: 3.2%
  TEAE leading to permanent withdrawal from study drug, Muscle spasms, %: 3.2%
  TEAE leading to permanent withdrawal from study drug, Musculoskeletal and connective tissue disorders, %: 3.2%
Part 2, lorundrostat
  Subjects with TEAEs considered at least possibly related to study drug: 9 subjects (%) and 9 (29.0%) subjects (%)
[1]
  On-treatment TEAE, Chronic kidney disease, %: (6.5) %
  On-treatment TEAE, Chronic kidney disease, Mild, %: (6.5) %
  On-treatment TEAE, Diarrhoea, %: (6.5) %
  On-treatment TEAE, Diarrhoea, Mild, %: (6.5) %
  On-treatment TEAE, Dizziness, %: (6.5) %
  On-treatment TEAE, Dizziness, Mild, %: (6.5) %
  On-treatment TEAE, Gastrointestinal disorders, %: (16.1) %
  On-treatment TEAE, Gastrointestinal disorders, Mild, %: (9.7) %
  On-treatment TEAE, Gastrointestinal disorders, Moderate, %: (6.5) %
  On-treatment TEAE, Hyperkalaemia, %: (25.8) %
  On-treatment TEAE, Hyperkalaemia, Mild, %: (9.7) %
  On-treatment TEAE, Hyperkalaemia, Moderate, %: (16.1) %
  On-treatment TEAE, Hyponatraemia, %: (6.5) %
  On-treatment TEAE, Infections and infestations, %: (16.1) %
  On-treatment TEAE, Infections and infestations, Mild, %: (6.5) %
  On-treatment TEAE, Infections and infestations, Moderate, %: (9.7) %
  On-treatment TEAE, Investigations, %: (6.5) %
  On-treatment TEAE, Metabolism and nutrition disorders, %: (32.3) %
  On-treatment TEAE, Metabolism and nutrition disorders, Mild, %: (6.5) %
  On-treatment TEAE, Metabolism and nutrition disorders, Moderate, %: (22.6) %
  On-treatment TEAE, Muscle spasms, %: (9.7) %
  On-treatment TEAE, Muscle spasms, Moderate, %: (6.5) %
  On-treatment TEAE, Musculoskeletal and connective tissue disorders, %: (16.1) %
  On-treatment TEAE, Musculoskeletal and connective tissue disorders, Mild, %: (6.5) %
  On-treatment TEAE, Musculoskeletal and connective tissue disorders, Moderate, %: (9.7) %
  On-treatment TEAE, Nausea, %: (6.5) %
  On-treatment TEAE, Nausea, Mild, %: (6.5) %
  On-treatment TEAE, Nervous system disorders, %: (6.5) %
  On-treatment TEAE, Nervous system disorders, Mild, %: (6.5) %
  On-treatment TEAE, Renal and urinary disorders, %: (6.5) %
  On-treatment TEAE, Renal and urinary disorders, Mild, %: (6.5) %
  On-treatment TEAE, Urinary tract infection, %: (6.5) %
  Subjects with any On-treatment TEAEs, Mild, %: (19.4) %
  Subjects with any On-treatment TEAEs, Moderate, %: (38.7) %
  Subjects with any On-treatment TEAEs, Severe, %: (3.2) %
Total active, N 190
  AE requiring dose titration: Hyperkalemia: 7 (4.1%)
  AE requiring dose titration: Hyponatremia: 1 (0.5%)
  AE requiring dose titration: Other possibly related: 0
  AE requiring dose titration: Other unrelated: 1 (0.5%)
  AE requiring study drug discontinuation: Hyperkalemia: 6 (3.2%)
  AE requiring study drug discontinuation: Hyponatremia: 1 (0.5%)
  AE requiring study drug discontinuation: Hypotension: 3 (1.6%)
  AE requiring study drug discontinuation: Other possibly related: 1 (0.5%)
  AE requiring study drug discontinuation: Other unrelated: 12 (6.3%)
Fall of 20 mmHg in SBP or 10 mmHg in DBP sitting to standing
  Subjects who developed orthostatic hypotension: three
Two in 100 mg QD cohorts (Part 1, Part 2), one 12.5 mg BID, reversible with treatment cessation
  Subjects with hypotension related to treatment: three
Whole study
  Overall safety and tolerability: safe and well tolerated

Source: US20260053812A1, “METHODS OF TREATING HYPERTENSION WITH A COMBINATION OF AN ALDOSTERONE SYNTHASE INHIBITOR AND A DIURETIC” (Mineralys Therapeutics, Inc., priority 2022, published 2026)
